14 compounds from PubChem BioAssay (NCI) can be followed below.

Some test systems named below: SR leukemia; SNB-75 CNS; U251 CNS; CAKI-1 renal; K-562 leukemia; MCF7 breast; HS 578T breast; COLO 205 colon; UACC-62 melanoma; OVCAR-5 ovarian.
Holding throughout (experiment): inhibition of tumour cell growth, NCI panel, 48 h

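Exposure lasted 48 hours, with cells grown in 96-well plates and compounds tested at five concentrations. The concentration for 50% growth inhibition is given as GI50. The concentration for full growth arrest is given as TGI.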 Bounds are passed on as bounds.

In the case of `O=[N+]([O-])c1ccc(N/N=C/CC(O)(C(F)(F)F)C(F)(F)F)c([N+](=O)[O-])c1`, the TGI with SR leukemia, with SNB-75 CNS, with U251 CNS, in the experiment on CAKI-1 renal, with K-562 leukemia and in the experiment on MCF7 breast was greater than 10 µM each time. Also, the TGI is 8.16 µM in the experiment with HS 578T breast, greater than 10 µM in the experiment on COLO 205 colon and greater than 10 µM with UACC-62 melanoma.

`CCOC(=O)c1c(-c2ccc(Cl)cc2)c(C#N)c(=S)n(C2OC(COC(C)=O)C(OC(C)=O)C(OC(C)=O)C2OC(C)=O)c1-c1ccccc1` (stereo not given): the TGI with SR leukemia, in the experiment with SNB-75 CNS, in the experiment on U251 CNS, in the experiment on CAKI-1 renal, in the experiment on K-562 leukemia and in the experiment with OVCAR-5 ovarian was greater than 100 µM each time. Besides, the TGI in the experiment with MCF7 breast, with HS 578T breast, in the experiment with COLO 205 colon and with UACC-62 melanoma was greater than 100 µM each time.

For `C=C1c2nc3ccccc3n2C=C(c2ccc(C)cc2)N1c1ccc(C)cc1`, the TGI was greater than 74.3 µM in the experiment with SR leukemia; greater than 100 µM with SNB-75 CNS; greater than 100 µM with U251 CNS; greater than 100 µM in the experiment with CAKI-1 renal; greater than 100 µM with K-562 leukemia; greater than 100 µM in the experiment on OVCAR-5 ovarian. Besides, the TGI in the experiment with MCF7 breast was greater than 100 µM; in the experiment on HS 578T breast, greater than 100 µM; with COLO 205 colon, greater than 89.3 µM; with UACC-62 melanoma it was greater than 100 µM.

Regarding `CCCC(O)c1cn(C(NC(=O)c2ccccc2)P(=O)(OCC)OCC)nn1` (stereo not given), the TGI in the experiment with SR leukemia, with SNB-75 CNS, in the experiment on U251 CNS, with CAKI-1 renal, in the experiment with K-562 leukemia and with MCF7 breast was greater than 100 µM throughout. In addition, the TGI in the experiment on HS 578T breast, in the experiment with COLO 205 colon and in the experiment with UACC-62 melanoma was greater than 100 µM throughout.

Regarding `Oc1ccc(Cl)cc1-c1cc(-c2ccccc2)nc(NCN2CCCCC2)n1`, the TGI with SR leukemia, in the experiment on SNB-75 CNS, in the experiment with U251 CNS, in the experiment on CAKI-1 renal, in the experiment with K-562 leukemia and in the experiment on OVCAR-5 ovarian was greater than 100 µM throughout. Besides, the TGI in the experiment with MCF7 breast, in the experiment on HS 578T breast, in the experiment with COLO 205 colon and with UACC-62 melanoma was greater than 100 µM throughout.

In the case of `C=CC(OC(C)=O)c1ccc(OC(=O)C(C)C)c(OC)c1` (stereo not given), the TGI was 13 µM in the experiment on SNB-75 CNS; 7.07 µM with U251 CNS; 3.65 µM in the experiment on CAKI-1 renal; 11.6 µM with K-562 leukemia; 6.29 µM with OVCAR-5 ovarian; 5.54 µM with MCF7 breast. Besides, the figures for the TGI in the experiment with HS 578T breast, in the experiment on COLO 205 colon and in the experiment on UACC-62 melanoma were greater than 80.6 µM, 7.65 µM and 31.5 µM, respectively.

As for `O=C(NC1CCCCC1)c1cc2ccccc2cc1O`, the TGI was 87.2 µM in the experiment with SR leukemia; greater than 100 µM in the experiment on SNB-75 CNS; greater than 100 µM with U251 CNS; greater than 100 µM in the experiment on CAKI-1 renal; 55.9 µM in the experiment with K-562 leukemia; greater than 100 µM in the experiment on MCF7 breast. Also, the TGI was 97.8 µM in the experiment on HS 578T breast, greater than 100 µM in the experiment on COLO 205 colon and greater than 100 µM in the experiment on UACC-62 melanoma.

Consider `O=c1oc2ccc([N+](=O)[O-])cc2c(Nc2ccc3c(c2)Sc2ccccc2O3)c1[N+](=O)[O-]`, for which the TGI in the experiment on SR leukemia came out at 55.2 µM; in the experiment on SNB-75 CNS it was 79 µM; in the experiment with U251 CNS, 33.6 µM; in the experiment on CAKI-1 renal it was 50.6 µM; in the experiment with K-562 leukemia it was 88.3 µM; with OVCAR-5 ovarian it was 47.2 µM. In addition, the TGI is 56.7 µM with MCF7 breast, 90.9 µM with HS 578T breast, 34.8 µM in the experiment on COLO 205 colon and 32.3 µM with UACC-62 melanoma.

With `Cc1ccc(C(=O)N(Cc2ccccc2)Cc2ccccc2)cc1N=NN(C)C`, the TGI was greater than 100 µM in the experiment on SR leukemia; greater than 100 µM in the experiment on U251 CNS; greater than 100 µM with CAKI-1 renal; greater than 100 µM in the experiment on K-562 leukemia; greater than 100 µM with OVCAR-5 ovarian; 65.9 µM in the experiment with MCF7 breast. The TGI in the experiment on HS 578T breast is 75.2 µM; in the experiment with COLO 205 colon it was 44.7 µM; in the experiment on UACC-62 melanoma, greater than 31.6 µM.

For `CCOC(=O)c1sc2nc(SC)nc3c2c1NCN3c1ccc(F)c(F)c1`, the TGI with SR leukemia is greater than 100 µM; in the experiment with U251 CNS, 30.8 µM; in the experiment on CAKI-1 renal, greater than 100 µM; in the experiment on K-562 leukemia, greater than 100 µM; in the experiment on OVCAR-5 ovarian, greater than 100 µM; in the experiment on MCF7 breast, greater than 100 µM. Besides, the TGI with HS 578T breast is 30.8 µM; in the experiment on COLO 205 colon, greater than 100 µM; with UACC-62 melanoma, greater than 100 µM.

Take `COc1ccc2c(c1)C/C(=C\c1cccc3ccccc13)C2=O`: the TGI in the experiment with SR leukemia is greater than 100 µM; in the experiment on SNB-75 CNS it was greater than 100 µM; in the experiment on U251 CNS it was 81.3 µM; with CAKI-1 renal it was greater than 100 µM; in the experiment on K-562 leukemia, greater than 100 µM; with OVCAR-5 ovarian it was greater than 100 µM. Moreover, the TGI in the experiment on MCF7 breast, in the experiment with HS 578T breast and in the experiment with UACC-62 melanoma was greater than 100 µM in each case.

Regarding `CCOC(=O)c1c(Br)c(-c2ccc(OC)cc2)c(Br)n1C`, the GI50 in the experiment on SR leukemia was 13.3 µM; in the experiment with SNB-75 CNS, 63.4 µM; in the experiment with K-562 leukemia, 4.04 µM; in the experiment with MCF7 breast it was 15.9 µM; in the experiment on UACC-62 melanoma, 13 µM. In addition, the TGI in the experiment on SR leukemia was 78.3 µM; with SNB-75 CNS, greater than 100 µM; in the experiment on U251 CNS it was greater than 100 µM; in the experiment with K-562 leukemia it was 38.3 µM; with OVCAR-5 ovarian, greater than 100 µM; in the experiment on MCF7 breast, 39.7 µM. The TGI with HS 578T breast is 47.6 µM; in the experiment on COLO 205 colon it was greater than 100 µM; in the experiment with UACC-62 melanoma, 47.6 µM.

Take `CCOC(=O)c1nc2ccccc2nc1Oc1ccc(C(=O)OC)cc1`: the TGI in the experiment with SNB-75 CNS, in the experiment with U251 CNS, in the experiment on CAKI-1 renal, with K-562 leukemia, in the experiment with OVCAR-5 ovarian and in the experiment with MCF7 breast was greater than 100 µM in each case. For the same compound, the TGI in the experiment with HS 578T breast, with COLO 205 colon and with UACC-62 melanoma was greater than 100 µM each time.

Turning to `CC1(C)C(CCO)CC1n1cc(I)c(=O)[nH]c1=O` (stereo not given), the TGI in the experiment with SNB-75 CNS, in the experiment on U251 CNS, in the experiment on CAKI-1 renal, in the experiment on K-562 leukemia, with OVCAR-5 ovarian and with MCF7 breast was greater than 100 µM each time. Moreover, the TGI in the experiment on HS 578T breast, with COLO 205 colon and with UACC-62 melanoma was greater than 100 µM each time.
